Measured values taken from patent publication US12195804B2, “Treatment of squamous cell carcinoma” (Board of Regents, The University of Texas System, priority 2018, dated 2025).

Key:
[1] = system: HNSCC cell lines; test: Colony formation assay; type: cell-based, human; settings: 48 hours treatment, 14-21 days, NOTCH1MUT compared with NOTCH1WT lines, below peak plasma concentration
Procedure: (§1) FIGS. 7A-7D: PI3K/mTOR signaling inhibition induces cell death in NOTCH1^MUT but not NOTCH1^WT head and neck squamous cell carcinoma (HNSCC) cell lines in vitro. FIG. 7A. Annexin V/propidium iodide or BrDU-terminal deoxynucleotidyl transferase (TdT) dUTP nick-end labeling (TUNEL) assays were used to measure apoptosis in HNSCC cells with the indicated NOTCH1 and PIK3CA mutations, which were treated with 50 nM GSK2126458 (GSK212) for 24 or 48 hours, respectively. Values are the means±standard deviations of three independent experiments. *p<0.05, unpaired two-tailed Student t-test. FIG. 7B. […] At 14-21 days after treatment, the cells were fixed and stained, images were captured using the GelCount Tumour Colony Counter, and colony numbers and the colorimetric intensity of the colonies were determined by measuring the optical density (OD) at 570 nm. […] Three NOTCH1^WT lines (black text and bars) and three NOTCH1^MUT lines (red text and bars) were treated with increasing concentrations of GSK212 for 4 hours, and levels of PI3K/mTOR pathway proteins were measured by Western blot analysis.
Colony formation assays. […] The total colony number and area were counted and analyzed using the ImageJ software program (National Institutes of Health, Bethesda, MD). […]

[2] = system: PI3K/mTOR pathway proteins; test: Western blot of PI3K/mTOR pathway proteins; type: cell-based, human; settings: 4 hours, NOTCH1WT and NOTCH1MUT lines
Procedure: as §1
Western blot analysis. […] Protein expression was detected using a horseradish peroxidase-conjugated secondary antibody (Bio-Rad, Hercules, CA) and electrochemiluminescence reagent (Amersham Biosciences, Pittsburg, PA).

[3] = system: HN31 and UMSCC22A subcutaneous xenografts; test: Subcutaneous xenograft models of NOTCH1MUT HNSCC; type: in vivo, athymic nude mice; settings: 1 mg/kg oral gavage daily 28 days
Procedure: (§2) FIGS. 8A-8D: PI3K/mTOR pathway inhibitors cause apoptosis and reduce tumor size in NOTCH1^MUT head and neck squamous cell carcinoma (HNSCC) in vivo. FIGS. 8A and 8B. The NOTCH1^MUT cell lines HN31 (FIG. 8A) and UMSCC22A (UM22A; FIG. 8B) were injected subcutaneously (SQ) into athymic nude mice. After tumors reached 150 mm^3, the mice were randomized to receive either vehicle control (2-hydroxypropyl-β-cyclodextrin) or 1 mg/kg GSK2126458 (GSK212) by oral gavage daily for 28 days. Tumor sizes were measured and tumor volumes were calculated at the indicated times, and the percent change in tumor volume at the end of therapy was calculated using the formula (final tumor volume−initial tumor volume/initial tumor volume)×100%. The percentages of TUNEL-positive cells were calculated from image quantification at 40× magnification. FIGS. 8C and 8D. HN31 (FIG. 8C) and UM22A (FIG. 8D) were implanted orthotopically (OT) into the anterior tongues of athymic nude mice. […] Tumor sizes were measured, and tumor volumes and percent changes in tumor volumes were calculated as above. […] The percentages of TUNEL-positive cells were calculated as described above. Data are means±standard deviations from 5 mice per group; p values were calculated using an unpaired t-test with the Welch correction. […]

[4] = system: HN31 and UM22A orthotopic xenografts; test: Orthotopic tongue xenograft models of NOTCH1MUT HNSCC; type: in vivo, athymic nude mice
Procedure: as §2

SMILES: COc1ncc(-c2ccc3nccc(-c4ccnnc4)c3c2)cc1NS(=O)(=O)c1ccc(F)cc1F [GSK2126458]
- number of colonies formed and total cell number [1]: significantly reduced
- target inhibition (PI3K/mTOR pathway proteins) [2]: dose-dependent target inhibition
- apoptosis in tumors (TUNEL staining) [3]: significant apoptosis
- tumor volume [3]: regressed
- tumor size compared with vehicle ([4]; 3 mg/kg oral gavage daily 28 days): significantly reduced tumor size
- apoptosis in tumors (TUNEL staining) ([4]; 3 mg/kg oral gavage, end of treatment): underwent apoptosis
